Laboratory results taken from US9364454B2, “Anti-inflammatory actions of neuroprotectin D1/protectin D1 and its natural stereoisomers” (The Brigham and Women's Hospital, Inc., priority 2005, dated 2016).
“Also recorded” adds a separate entry of the source. Like-named read-outs stand apart in the source and are kept apart here.

How the values were obtained:
[1] = tested on: FVB male mice; details: cited from earlier work
[2] = tested on: male FvB mice; experiment: PD1 given after aeroallergen challenge (days 18-20), BAL on day 21; type: in vivo, mouse
Procedure: In select experiments, animals were sensitized and aeroallergen challenged for four days prior to receiving PD1 (20 ng) or PBS by intravenous injection (0.1 ml) on days 18, 19 and 20. On day 21, bilateral BAL was performed.
Murine lungs were fixed in 10% buffered formalin and paraffin embedded for hematoxylin and eosin and periodic acid Schiff staining (Sigma Chemical Co.). Tissue morphometry was performed by a member (K. Haley) of the Lung Histopathology Core Laboratory at Brigham and Women's Hospital who was blinded to the experimental conditions prior to histological analyses. Three fields per slide were examined at 200× magnification for vessels, large airways and alveoli with EOS counted at 400× magnification in randomly assigned fields. Vessels were identified by perivascular smooth muscle, and large airways were identified by at least ½ their diameter either cuboidal or columnar epithelia. Measurement of inflammatory mediators was determined in cell-free BAL fluid (BALF) (2000 g, 10 min) by sensitive and specific ELISAs, in tandem, for interleukin-5 (IL-5), IL-12, IL-13, PGD2 (R&D Systems), cysteinyl LTs, (Cayman Chemical Co.), and LXA4 (Neogen). Cells in BALF were resuspended in PBS, enumerated by hemocytometer, and concentrated onto microscope slides by cytocentrifuge (STATspin) (265 g). […]

[3] = tested on: FVB male mice; experiment: Acute inflammatory exudates: zymosan A murine peritonitis (leukocyte infiltration); type: in vivo, mouse
Procedure: Peritonitis was carried out using 6-8 week-old FVB male mice (Charles River Laboratories) fed laboratory Rodent Diet 5001 (Purina Mills) that were anesthetized with isoflurane, and compounds to be tested were administered intraperitoneally. […] Each compound tested or vehicle alone was suspended in 1 μl ethanol and mixed in sterile saline (120 μl). After intraperitoneal injections (either 2 or 4 hours of acute inflammation), the mice were sacrificed in accordance with the Harvard Medical Area Standing Committee on Animals protocol no. 02570, and peritoneal lavages were collected rapidly and placed in an ice bath (4° C.) for enumeration, differential counts, and further analysis.

[4] = tested on: human PMN transmigration across endothelial cells; experiment: Human PMN transmigration across HMEC monolayers, LTB4-induced; type: cell-based
Procedure: PMN were freshly isolated from whole blood obtained by venipuncture from healthy human donors (who denied taking medication for 2 weeks prior to donation; BWH protocol no. 88-02642) and anti-coagulated with acid citrate dextrose as in (40, 41). Briefly, plasma and mononuclear cells were removed by aspiration from the buffy coat after centrifugation (400 g; 20 min) at room temperature. Histopaque (density 1.077) was from Sigma-Aldrich (St. Louis, Mo.). RBCs were sedimented using 2% gelatin, and residual RBCs were removed by lysis in ice-cold NH4Cl buffer. The cell suspensions were >90% PMN as determined by light microscopic evaluation. PMN were suspended at 5×10^7 cells/ml in HBSS with 10 mM Hepes, pH 7.4, and without Ca^2+ or Mg^2+ (Sigma-Aldrich, St. Louis, Mo.). PMN were used within 2 hours of their isolation.
Human Microvascular Endothelial Cells (HMEC; a gift from Francisco Candal of the Centers for Disease Control, Atlanta, Ga.) were obtained as primary cultures. For preparation of experimental HMEC monolayers, confluent endothelial cells were grown on 0.33 cm^2 ring-supported polycarbonate filters (5 μm pore size; Costar Corp., Cambridge, Mass.) in the apical-to-basolateral direction. Cells were grown for ˜1 week prior to transmigration experiments.
Transmigration was conducted essentially as in ref. (41). PMN were incubated with either vehicle-containing buffer or compound for 15 minutes at 37° C. A chemotactic gradient was established by placing HMEC inserts that had been washed in HBSS with Ca^2+ and Mg^2+ (denoted +/+) in 10^−8M LTB4 in the lower chambers. Neutrophils (10^6 cells) were added to 50 μl HBSS +/+ in the upper chambers and cells were incubated at 37° C. for 90 min. Transmigrated PMN were quantified by assessing the PMN azurophilic marker myeloperoxidase and a calibration curve. PMN were lysed by the addition of Triton X-100 to a final concentration of 0.5%. The samples were acidified with citrate buffer (final concentration 100 mM, pH 4.2). An aliquot of each sample was added to an equal volume of ABTS solution (1 mM ABTS [2′-azino-bis(3-ethylbenzo-thiazoline-6-sulfonic acid)], 0.03% H2O2, 100 mM sodium citrate buffer, pH 4.2) in a 96-well plate. The resulting color was monitored using a plate reader at 405 nm and a calibration curve for cell number.

[5] = tested on: male FvB mice; experiment: Airway responsiveness to aerosolized methacholine in OVA-sensitized/challenged mice; type: in vivo, mouse
Procedure: (§1) Five to seven week old male FvB mice (Charles River Laboratories) were housed in isolation cages under viral antibody-free conditions. Mice were fed a standard diet (Laboratory Rodent Diet 5001, PMI Nutrition International) that contained no less than 4.5% total fat with 0.26% omega-3 fatty acids and <0.01% C20:4. After Harvard Medical Area IRB approval (Protocol #02570), mice were sensitized with intraperitoneal injections of ovalbumin (OVA) (Grade III; Sigma Chemical Co.) (10 μg) plus 1 mg aluminum hydroxide (ALUM) (J.T. Baker Chemical Co.) as adjuvant in 0.2 ml PBS on days 0 and 7. On days 14, 15, 16 and 17, the mice received PD1 (2, 20 or 200 ng) (a product of biogenic synthesis (52)) or PBS with 1.6 mM CaCl2 and 1.6 mM MgCl2 (0.1 ml) by intravenous injection 30 min prior to an aerosol challenge containing either PBS or 6% OVA for 25 min/day. Matching experiments were performed with 20 ng PD1 prepared by total organic synthesis (62).
(§2) On day 18, 24 h after the last aerosol challenge, either airway responsiveness to aerosolized methacholine (0, 20, 50 and 75 mg, 10 sec) was measured, bilateral bronchoalveolar lavage (BAL) (2 aliquots of 1 ml PBS plus 0.6 mM EDTA) was performed or tissues were harvested for histological analysis. Lung resistance was measured using a Flexivent ventilator (SciReq). Resistance was measured as a function of time for each animal, and peak and average values for each dose of methacholine were recorded. No BAL or histological analysis was performed on those animals undergoing airway hyper-responsiveness or lipid extraction studies.

[6] = tested on: male FvB mice; type: in vivo
Procedure: as §1
as §2, with “No BAL or histological analysis was performed on those animals undergoing airway hyper-responsiveness or lipid extraction studies.” left out
Murine lungs were fixed in 10% buffered formalin and paraffin embedded for hematoxylin and eosin and periodic acid Schiff staining (Sigma Chemical Co.). […] Three fields per slide were examined at 200× magnification for vessels, large airways and alveoli with EOS counted at 400× magnification in randomly assigned fields. […] Measurement of inflammatory mediators was determined in cell-free BAL fluid (BALF) (2000 g, 10 min) by sensitive and specific ELISAs, in tandem, for interleukin-5 (IL-5), IL-12, IL-13, PGD2 (R&D Systems), cysteinyl LTs, (Cayman Chemical Co.), and LXA4 (Neogen). […]

Structure (SMILES): CC/C=C\C[C@H](O)\C=C/C=C/C=C/[C@H](O)C/C=C\C/C=C\CCC(=O)O [PD1, 10R,17S-dihydroxy-docosa-4Z,7Z,11E,13E,15Z,19Z-hexaenoic acid]
- inhibition of PMN infiltration ([1]; 100 ng/mouse, i.v., earlier experiments (ref 1)): ~40%
- apparent maximal response, reduction of PMN infiltration ([1]; doses as low as 100 ng/mouse (ref 1)): ~50%
- potency versus indomethacin in reducing PMN infiltration ([1]; i.v., earlier experiments (ref 1)): more potent than indomethacin
- numbers of total leukocytes, Eos and Lymphs in BALFs ([2]; 20 ng iv once a day for three days after challenge, day 21): significant decrements
- resolution of allergic airway inflammation (in words) ([2]; PD1 treatment after aeroallergen challenge): has the capacity to accelerate resolution of allergic airway inflammation; also recorded: promoted the resolution of airway inflammation; also recorded: promotes resolution of allergen-driven leukocytes; also recorded: markedly accelerated the resolution of airway inflammation
- rank order of potency ([3]; 0.1 ng dose): Compound VI>>PD1>10S,17S-DT (the double dioxygenation product)>the Δ15-trans-PD1>>Compound V
- activity on PMN infiltration (in words) ([3]; 1 ng/mouse dose): striking inhibition of PMN infiltration
- PMN infiltration when given after initiation of inflammation (in words) ([3]; 1 ng/mouse i.p. 2 h after zymosan A, lavage at 4 h): diminished infiltration of PMN; also recorded: reduces PMN infiltration; also recorded: reduced PMN infiltration after initiation (2 h) of inflammation
- inhibition of PMN infiltration ([3]; 1 ng/mouse, peritonitis): ~40%
- inhibition of PMN infiltration ([3]; 10 ng and 100 ng doses (maintained)): ~40%
- kind of joint anti-inflammatory action of PD1 and RvE1 ([3]; 10 ng/mouse i.p. of either or both, 2 h): additive rather than synergistic
- PMN infiltration, PD1 and RvE1 administered together (in words) ([3]; 10 ng/mouse i.p., exudates at 2 h): reduced the infiltration of PMN
- PMN infiltration (in words) ([3]; 10 ng/mouse, 4 h after injection (FIG. 9)): reduced PMN infiltration; also recorded: Statistically different from *zymosan A-injected mice
- rank order of potency ([3]; 1-10 ng dose): PD1≈PD1 methyl ester>>Δ15-trans PD1>10S,17S-diHDHA (isomer I)
- anti-inflammatory potency in vivo, PMN infiltration (in words) ([3]; dose range tested (FIG. 6), lavage at 2 h): dramatically reduced the infiltration of PMN into the peritoneum; also recorded: more potent than the dioxygenation product; also recorded: potent regulator of PMN infiltration in vivo
- blocking of further PMN infiltration ([3]; given 2 h after zymosan A challenge): > 90%
- recruitment of monocytes and lymphocytes to exudates (in words) ([3]; peritonitis, differential counts): increased the non-phlogistic recruitment of monocytes and lymphocytes; also recorded: regulated both monocyte and lymphocyte traffic
- inhibition of PMN transmigration ([4]; 1.0 nM, in response to leukotriene B4): 30%
- attenuation of human neutrophil transmigration ([4]; 10 nM, LTB4 10^-8 M, 90 min): ~50%
- reduction of PMN transmigration ([4]; 10-100 nM, in vitro): 35-45%
- highest degree of inhibition of neutrophil transmigration observed ([4]; HMEC monolayers, neutrophils from >5 separate donors, each experiment): ≤ 50%
- effect on LTB4-induced PMN transmigration (in words) ([4]; compound 15 min, LTB4 10^-8 M 90 min): reduced PMN transmigration; also recorded: inhibited LTB4-induced PMN migration; also recorded: stereoselectively reduces PMN transmigration in vitro
- shape of dose response, protection on airway hyper-responsiveness ([5]; 2, 20, 200 ng): bell-shaped dose response with maximal protection
- log ED200 for the mean airway resistance ([5]; 2, 20 and 200 ng, compared with vehicle): significantly increased
- airway hyper-responsiveness: peak and average lung resistance in response to methacholine ([5]; PD1 0-200 ng i.v. prior to OVA challenge): decreased both peak and average lung resistance; also recorded: dampened; also recorded: reduces airway hyper-responsiveness
- lung elastance or compliance ([5]; following allergen challenge (data not shown)): no significant changes
- airway responses of control animals that received PBS rather than allergen ([5]; mouse, in vivo): no significant impact
- EOS and Lymphs in the peribronchial regions and airspaces (histology) ([6]; 2, 20 or 200 ng i.v., versus vehicle): substantially less EOS and Lymphs
- EOS tissue infiltration around vessels and in large and peripheral airways (morphometry) ([6]; PD1 i.v. prior to challenge): significant decreases
- EOS trafficking ([6]; as little as 2 ng of PD1): reduced
